What was measured:
human TRPM4 = biological target: T1, human TRPM4 (Homo sapiens, UniProt Q8TD43); experiment: QPatch assay (automated patch clamp), TRPM4; assay type: cell-based; conditions: human TRPM4-expressing HEK293 cells, read-out: TRP M4 IC50
T1 construct: host or cells: HEK293, stably expressing
Procedure: QPatchHTX, an automated electrophysiology platform, was used in single hole mode. One day before use human TRPM4- or TRPM5-expressing HEK293 cells were seeded in a T75 flask at a density of 53k cells per cm^2 and at passages < 23. […] The extracellular solution was (in mM): CaCl2 (7), MgCl2 (2), KCl (5), HEPES (10), NaCl (70), NMDG (70); pH 7.4 with NaOH. The intracellular solution was (in mM): HEPES (10), NMDG (100), NaCl (50), EGTA (20), MgCl2 (1), CaCl2 (21); pH 7.2 with HCl. […] This protocol was repeated every 7 seconds. […] FFA was used as reference compound and applied cumulatively with each concentration incubating at a minimum of 20 voltage protocol runs (140 seconds) with the current after addition of FFA being calculated as full block. […] Each compound was measured at least 3 time independently.

[1] = biological target: T2, kappa (h) (KOP) (agonist radioligand) (Homo sapiens, UniProt P41145); experiment: In vitro pharmacology (SafetyScreen44), kappa opioid receptor binding; conditions: Ref. CMP U50488, read-out: Inhibiton (%) kappa (h) (KOP) (agonist radioligand)
T2 construct: purchased Eurofins Cerep Safetyscreen 44 Panel; Study ID FR095-0009609
T2 sequence (P41145 whole entry): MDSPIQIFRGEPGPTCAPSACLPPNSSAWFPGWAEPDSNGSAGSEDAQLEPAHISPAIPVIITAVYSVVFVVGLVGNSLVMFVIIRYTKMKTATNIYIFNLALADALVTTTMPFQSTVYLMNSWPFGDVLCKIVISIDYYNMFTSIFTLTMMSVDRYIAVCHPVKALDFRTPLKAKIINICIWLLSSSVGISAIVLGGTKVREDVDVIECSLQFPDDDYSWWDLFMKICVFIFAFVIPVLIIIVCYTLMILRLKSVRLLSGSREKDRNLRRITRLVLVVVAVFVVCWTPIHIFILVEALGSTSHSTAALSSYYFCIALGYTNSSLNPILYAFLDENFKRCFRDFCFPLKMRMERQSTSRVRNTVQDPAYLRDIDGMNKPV
Procedure: (§1) In vitro assays were used to test absorption, distribution, metabolism, excretion and toxicity (ADMET) parameters for selected compounds. Compound absorption was assessed using parallel artificial membrane permeability (PAMPA) and Caco-2 cell permeability assays (cut-off criterion > 2 × 10^-6 cm s^-1). Compound toxicity was evaluated by measuring inhibition of cytochrome P450 enzymes (CYP), the potassium channel hERG, and TRPM5, with all parameters meeting acceptable criteria (Table 1). To assess potential off-target activity of the compounds that could be relevant for safety in humans, in vitro pharmacology tests using the commercially available and widely used SafetyScreen44 interaction panel^60 covering eight protein families were conducted (Tables 2 and 3). The lack of off-target activities on hERG channels and in vitro pharmacology profiles are promising and consistent with absence of toxicity during in vivo pharmacokinetic assessments, see below. Table 1. In vitro ADMET profile of Series 1 compounds.
(§2) Table 2. In vitro pharmacology profile of representative compounds disclosed herein, i.e. of benzoxazoles according to Formula (I) (CMP 343 and 354). Only inhibitions above 50% relative to the reference compound are shown and considered active. […]

[2] = biological target: T3, 5-HT2B (h) (agonist radioligand) (Homo sapiens, UniProt P41595); experiment: In vitro pharmacology (SafetyScreen44), 5-HT2B binding; conditions: Ref. CMP (±)DOI, read-out: Inhibiton (%) 5-HT2B (h) (agonist radioligand)
T3 construct: purchased Eurofins Cerep Safetyscreen 44 Panel; Study ID FR095-0009609
T3 sequence (P41595 whole entry): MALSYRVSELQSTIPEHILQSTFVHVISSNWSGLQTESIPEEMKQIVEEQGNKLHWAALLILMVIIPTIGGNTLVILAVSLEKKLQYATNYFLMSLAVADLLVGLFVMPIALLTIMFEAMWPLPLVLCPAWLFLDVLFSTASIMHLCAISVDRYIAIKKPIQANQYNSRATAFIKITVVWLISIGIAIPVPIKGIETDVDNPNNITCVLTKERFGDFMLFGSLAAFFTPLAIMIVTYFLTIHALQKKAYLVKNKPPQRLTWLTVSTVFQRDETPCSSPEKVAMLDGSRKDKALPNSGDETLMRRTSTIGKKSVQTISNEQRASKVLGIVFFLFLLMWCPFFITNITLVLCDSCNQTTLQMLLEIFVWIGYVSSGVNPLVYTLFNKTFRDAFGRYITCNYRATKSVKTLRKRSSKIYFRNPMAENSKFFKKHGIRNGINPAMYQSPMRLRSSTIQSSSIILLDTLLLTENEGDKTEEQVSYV
Procedure: as §1, §2

[3] = biological target: T4, norepinephrine transporter (h) (antagonist radioligand) (Homo sapiens, UniProt P23975); experiment: In vitro pharmacology (SafetyScreen44), norepinephrine transporter binding; conditions: Ref. CMP protriptyline, read-out: Inhibiton (%) norepinephrine transporter (h) (antagonist radioligand)
T4 construct: purchased Eurofins Cerep Safetyscreen 44 Panel; Study ID FR095-0009609
T4 sequence (P23975 whole entry): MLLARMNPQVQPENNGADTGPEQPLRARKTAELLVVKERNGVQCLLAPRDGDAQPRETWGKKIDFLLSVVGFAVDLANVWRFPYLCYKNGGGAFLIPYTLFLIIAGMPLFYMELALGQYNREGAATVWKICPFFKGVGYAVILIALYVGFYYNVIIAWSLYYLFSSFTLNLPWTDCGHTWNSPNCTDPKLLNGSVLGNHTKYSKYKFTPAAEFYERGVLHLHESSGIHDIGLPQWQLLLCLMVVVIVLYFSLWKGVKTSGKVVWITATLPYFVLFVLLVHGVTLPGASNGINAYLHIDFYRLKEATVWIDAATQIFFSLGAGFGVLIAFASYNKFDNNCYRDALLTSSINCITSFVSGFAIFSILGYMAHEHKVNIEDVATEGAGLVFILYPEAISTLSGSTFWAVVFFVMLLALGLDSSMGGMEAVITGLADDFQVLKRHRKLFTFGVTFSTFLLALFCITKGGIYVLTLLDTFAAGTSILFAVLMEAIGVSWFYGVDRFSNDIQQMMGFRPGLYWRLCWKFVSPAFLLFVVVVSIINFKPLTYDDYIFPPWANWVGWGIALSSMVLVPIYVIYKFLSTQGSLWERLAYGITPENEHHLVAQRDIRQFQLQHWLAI
Procedure: as §1, §2

[4] = biological target: T5, 5-HT2A (h) (agonist radioligand) (Homo sapiens, UniProt P28223); experiment: In vitro pharmacology (SafetyScreen44), 5-HT2A binding; conditions: Ref. CMP (±)DOI, read-out: Inhibiton (%) 5-HT2A (h) (agonist radioligand)
T5 construct: purchased Eurofins Cerep Safetyscreen 44 Panel; Study ID FR095-0009609
T5 sequence (P28223 whole entry): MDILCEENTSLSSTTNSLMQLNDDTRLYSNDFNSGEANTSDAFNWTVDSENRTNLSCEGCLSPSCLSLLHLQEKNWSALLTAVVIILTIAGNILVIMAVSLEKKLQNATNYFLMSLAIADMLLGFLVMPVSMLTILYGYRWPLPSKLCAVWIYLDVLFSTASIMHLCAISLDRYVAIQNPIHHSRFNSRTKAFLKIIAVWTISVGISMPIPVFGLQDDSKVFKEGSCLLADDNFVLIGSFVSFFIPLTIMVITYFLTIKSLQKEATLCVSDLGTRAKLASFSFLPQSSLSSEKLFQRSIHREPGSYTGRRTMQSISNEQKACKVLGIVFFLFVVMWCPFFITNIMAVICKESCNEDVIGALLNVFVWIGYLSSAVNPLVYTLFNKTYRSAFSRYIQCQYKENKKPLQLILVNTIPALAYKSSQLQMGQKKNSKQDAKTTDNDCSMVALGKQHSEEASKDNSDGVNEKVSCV
Procedure: as §1, §2

[5] = biological target: T6, dopamine transporter (h) (antagonist radioligand) (Homo sapiens, UniProt Q01959); experiment: In vitro pharmacology (SafetyScreen44), dopamine transporter binding; conditions: Ref. CMP BTCP, read-out: Inhibiton (%) dopamine transporter (h) (antagonist radioligand)
T6 construct: purchased Eurofins Cerep Safetyscreen 44 Panel; Study ID FR095-0009609
T6 sequence (Q01959 whole entry): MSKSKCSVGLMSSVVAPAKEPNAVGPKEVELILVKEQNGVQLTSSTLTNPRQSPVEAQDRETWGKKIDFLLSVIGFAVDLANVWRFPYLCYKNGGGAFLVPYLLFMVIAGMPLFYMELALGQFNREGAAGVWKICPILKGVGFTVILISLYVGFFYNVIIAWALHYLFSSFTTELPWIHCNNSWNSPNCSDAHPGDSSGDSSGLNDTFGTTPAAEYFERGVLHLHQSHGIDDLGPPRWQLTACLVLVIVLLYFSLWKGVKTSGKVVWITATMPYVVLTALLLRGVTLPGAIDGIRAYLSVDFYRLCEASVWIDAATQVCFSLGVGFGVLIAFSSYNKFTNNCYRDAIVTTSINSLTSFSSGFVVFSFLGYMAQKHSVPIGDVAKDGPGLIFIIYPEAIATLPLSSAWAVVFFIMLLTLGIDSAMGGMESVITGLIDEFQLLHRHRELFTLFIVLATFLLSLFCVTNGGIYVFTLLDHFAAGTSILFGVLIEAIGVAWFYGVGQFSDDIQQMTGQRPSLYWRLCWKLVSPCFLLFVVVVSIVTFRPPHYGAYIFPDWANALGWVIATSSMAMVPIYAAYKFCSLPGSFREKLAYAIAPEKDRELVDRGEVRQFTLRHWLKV
Procedure: as §1, §2

COX1 (h) = biological target: T7, COX1 (h) (Homo sapiens, UniProt P23219); experiment: In vitro pharmacology (SafetyScreen44), COX1; assay type: biochemical; conditions: Ref. CMP Diclofenac, read-out: Inhibiton (%) COX1 (h)
T7 construct: purchased Eurofins Cerep Safetyscreen 44 Panel; Study ID FR095-0009609
T7 sequence (P23219 24-599): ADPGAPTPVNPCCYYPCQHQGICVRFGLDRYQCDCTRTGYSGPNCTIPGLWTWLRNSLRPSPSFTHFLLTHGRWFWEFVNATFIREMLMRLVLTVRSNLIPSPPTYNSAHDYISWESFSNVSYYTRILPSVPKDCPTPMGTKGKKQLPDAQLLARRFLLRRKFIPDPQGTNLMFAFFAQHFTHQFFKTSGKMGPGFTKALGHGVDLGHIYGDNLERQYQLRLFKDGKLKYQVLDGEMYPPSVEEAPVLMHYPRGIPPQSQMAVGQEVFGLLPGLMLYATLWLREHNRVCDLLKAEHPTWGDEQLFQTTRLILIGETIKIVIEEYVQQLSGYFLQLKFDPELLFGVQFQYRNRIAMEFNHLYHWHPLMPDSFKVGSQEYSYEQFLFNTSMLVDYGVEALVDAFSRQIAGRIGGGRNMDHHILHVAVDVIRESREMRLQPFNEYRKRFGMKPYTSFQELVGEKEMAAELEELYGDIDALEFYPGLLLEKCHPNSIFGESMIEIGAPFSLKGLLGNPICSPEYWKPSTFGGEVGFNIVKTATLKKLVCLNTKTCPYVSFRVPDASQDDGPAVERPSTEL
Procedure: as §1, §2

T1 sequence (Q8TD43 whole entry): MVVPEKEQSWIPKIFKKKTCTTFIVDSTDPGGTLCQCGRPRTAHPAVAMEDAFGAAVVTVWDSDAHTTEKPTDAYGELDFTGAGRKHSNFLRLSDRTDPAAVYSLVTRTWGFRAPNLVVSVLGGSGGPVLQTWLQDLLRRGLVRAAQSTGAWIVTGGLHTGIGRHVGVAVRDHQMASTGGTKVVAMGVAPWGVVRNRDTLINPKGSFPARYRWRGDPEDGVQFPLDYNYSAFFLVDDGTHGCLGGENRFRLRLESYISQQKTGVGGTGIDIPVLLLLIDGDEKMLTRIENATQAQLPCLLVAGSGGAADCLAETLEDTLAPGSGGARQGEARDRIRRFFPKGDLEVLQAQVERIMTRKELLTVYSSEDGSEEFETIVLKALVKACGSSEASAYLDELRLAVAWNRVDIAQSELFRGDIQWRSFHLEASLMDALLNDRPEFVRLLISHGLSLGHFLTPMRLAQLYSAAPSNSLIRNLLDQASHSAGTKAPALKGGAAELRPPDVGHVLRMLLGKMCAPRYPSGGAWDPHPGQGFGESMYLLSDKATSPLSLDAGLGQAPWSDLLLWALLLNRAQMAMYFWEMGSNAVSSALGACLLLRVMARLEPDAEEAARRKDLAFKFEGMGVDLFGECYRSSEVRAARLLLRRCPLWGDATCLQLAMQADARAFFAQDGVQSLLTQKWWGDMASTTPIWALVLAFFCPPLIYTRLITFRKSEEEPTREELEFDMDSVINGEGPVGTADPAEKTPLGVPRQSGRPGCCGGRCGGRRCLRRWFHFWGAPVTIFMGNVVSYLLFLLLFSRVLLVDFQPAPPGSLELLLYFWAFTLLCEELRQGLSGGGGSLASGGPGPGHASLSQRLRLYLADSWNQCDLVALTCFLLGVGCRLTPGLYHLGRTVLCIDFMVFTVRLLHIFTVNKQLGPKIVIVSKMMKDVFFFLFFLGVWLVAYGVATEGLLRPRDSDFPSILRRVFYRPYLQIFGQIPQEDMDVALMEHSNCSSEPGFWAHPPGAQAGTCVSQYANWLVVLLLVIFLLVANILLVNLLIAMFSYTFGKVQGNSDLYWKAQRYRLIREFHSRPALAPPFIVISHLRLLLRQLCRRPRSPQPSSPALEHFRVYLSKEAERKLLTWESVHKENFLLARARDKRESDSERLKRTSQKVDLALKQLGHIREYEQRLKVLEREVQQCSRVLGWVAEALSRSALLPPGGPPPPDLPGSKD

Row | Structure (SMILES) | IC50 (human TRPM4) | inhibition at 5 µM [1] | inhibition at 5 µM [2] | inhibition at 5 µM [3] | inhibition at 5 µM [4] | inhibition at 5 µM [5] | inhibition at 5 µM (COX1 (h))
1 | Cc1noc(-c2csc(S(=O)(=O)Nc3ccccc3C(F)(F)F)c2)c1C [CMP157] | 630 nM | – | – | – | – | – | –
2 | Fc1cccc(-c2ccccc2NCc2nc3ccccc3o2)c1 [CMP343] | – | 63% | 70% | 78% | 51% | 70% | 56%
3 | Cc1ccc(-c2ccccc2NCc2nc3ccccc3o2)s1 [CMP354] | – | – | 65% | 74% | 73% | 64% | –

Source: patent EP4733298A1, “NOVEL TRPM4 ANTAGONISTS AND MEDICAL USE THEREOF” (Universitätsklinikum Hamburg-Eppendorf, priority 2024, dated 2026)
